In ChEMBL document CHEMBL4219224, “Structure based drug design and in vitro metabolism study: Discovery of N-(4-methylthiophenyl)-N,2-dimethyl-cyclopenta[d]pyrimidine as a potent microtubule targeting agent” (Bioorg Med Chem, 2018):

What was measured:
Format in all cases: functional
[1] = test system: SR; experiment: Growth inhibition of human SR cells incubated for 48 hrs by sulforhodamine B assay
[2] = test system: U-251; experiment: Growth inhibition of human U251 cells incubated for 48 hrs by sulforhodamine B assay; settings: U-251, 48 h
[3] = test system: SW-620; experiment: Growth inhibition of human SW620 cells incubated for 48 hrs by sulforhodamine B assay; settings: SW-620, 48 h
[4] = test system: HCT-15; experiment: Growth inhibition of human HCT15 cells incubated for 48 hrs by sulforhodamine B assay; settings: HCT-15, 48 h
[5] = test system: TK-10; experiment: Growth inhibition of human TK10 cells incubated for 48 hrs by sulforhodamine B assay; settings: TK-10, 48 h
[6] = test system: M14; experiment: Growth inhibition of human M14 cells incubated for 48 hrs by sulforhodamine B assay; settings: M14, 48 h
[7] = test system: K562; experiment: Growth inhibition of human K562 cells incubated for 48 hrs by sulforhodamine B assay; settings: K562, 48 h
[8] = test system: Malme-3M; experiment: Growth inhibition of human MALME-3M cells incubated for 48 hrs by sulforhodamine B assay
[9] = test system: UO-31; experiment: Growth inhibition of human UO31 cells incubated for 48 hrs by sulforhodamine B assay; settings: UO-31, 48 h
[10] = test system: NCI-H322M; experiment: Growth inhibition of human NCI-H322M cells incubated for 48 hrs by sulforhodamine B assay
[11] = test system: 786-0; experiment: Growth inhibition of human 786-0 cells incubated for 48 hrs by sulforhodamine B assay; settings: 786-0, 48 h
[12] = test system: HCC 2998; experiment: Growth inhibition of human HCC2998 cells incubated for 48 hrs by sulforhodamine B assay; settings: HCC 2998, 48 h
[13] = test system: MDA-MB-435; experiment: Growth inhibition of human MDA-MB-435 cells incubated for 48 hrs by sulforhodamine B assay; settings: MDA-MB-435, 48 h
[14] = test system: SF-295; experiment: Growth inhibition of human SF295 cells incubated for 48 hrs by sulforhodamine B assay; settings: SF-295, 48 h
[15] = test system: OVCAR-4; experiment: Growth inhibition of human OVCAR4 cells incubated for 48 hrs by sulforhodamine B assay; settings: OVCAR-4, 48 h
[16] = test system: ACHN; experiment: Growth inhibition of human ACHN cells incubated for 48 hrs by sulforhodamine B assay
[17] = test system: A549; experiment: Growth inhibition of human A549/ATCC cells incubated for 48 hrs by sulforhodamine B assay; settings: A549, 48 h
[18] = test system: NCI-H522; experiment: Growth inhibition of human NCI-H522 cells incubated for 48 hrs by sulforhodamine B assay; settings: NCI-H522, 48 h
[19] = test system: OVCAR-8; experiment: Growth inhibition of human OVCAR8 cells incubated for 48 hrs by sulforhodamine B assay; settings: OVCAR-8, 48 h
[20] = test system: HT-29; experiment: Growth inhibition of human HT-29 cells incubated for 48 hrs by sulforhodamine B assay; settings: HT-29, 48 h
[21] = test system: NCI-H460; experiment: Growth inhibition of human NCI-H460 cells incubated for 48 hrs by sulforhodamine B assay; settings: NCI-H460, 48 h
[22] = test system: KM12; experiment: Growth inhibition of human KM12 cells incubated for 48 hrs by sulforhodamine B assay; settings: KM12, 48 h
[23] = test system: NCI-H23; experiment: Growth inhibition of human NCI-H23 cells incubated for 48 hrs by sulforhodamine B assay; settings: NCI-H23, 48 h
[24] = test system: RXF 393; experiment: Growth inhibition of human RXF393 cells incubated for 48 hrs by sulforhodamine B assay; settings: RXF 393, 48 h
[25] = test system: OVCAR-3; experiment: Growth inhibition of human OVCAR3 cells incubated for 48 hrs by sulforhodamine B assay; settings: OVCAR-3, 48 h
[26] = test system: SN12C; experiment: Growth inhibition of human SN12C cells incubated for 48 hrs by sulforhodamine B assay
[27] = test system: NCI/ADR-RES; experiment: Growth inhibition of human NCI/ADR-RES cells incubated for 48 hrs by sulforhodamine B assay
[28] = test system: SF-539; experiment: Growth inhibition of human SF539 cells incubated for 48 hrs by sulforhodamine B assay; settings: SF-539, 48 h
[29] = test system: SF-268; experiment: Growth inhibition of human SF268 cells incubated for 48 hrs by sulforhodamine B assay; settings: SF-268, 48 h
[30] = test system: BT-549; experiment: Growth inhibition of human BT549 cells incubated for 48 hrs by sulforhodamine B assay; settings: BT-549, 48 h
[31] = test system: HL-60(TB); experiment: Growth inhibition of human HL-60(TB) cells incubated for 48 hrs by sulforhodamine B assay; settings: HL-60, 48 h
[32] = test system: A498; experiment: Growth inhibition of human A498 cells incubated for 48 hrs by sulforhodamine B assay; settings: A498, 48 h
[33] = test system: SNB-19; experiment: Growth inhibition of human SNB19 cells incubated for 48 hrs by sulforhodamine B assay; settings: SNB-19, 48 h
[34] = test system: Hs-578T; experiment: Growth inhibition of human Hs578T cells incubated for 48 hrs by sulforhodamine B assay
[35] = test system: IGROV-1; experiment: Growth inhibition of human IGROV1 cells incubated for 48 hrs by sulforhodamine B assay; settings: IGROV-1, 48 h
[36] = test system: PC-3; experiment: Growth inhibition of human PC3 cells incubated for 48 hrs by sulforhodamine B assay; settings: PC-3, 48 h
[37] = test system: HCT-116; experiment: Growth inhibition of human HCT116 cells incubated for 48 hrs by sulforhodamine B assay; settings: HCT-116, 48 h
[38] = test system: RPMI-8226; experiment: Growth inhibition of human RPMI8226 cells incubated for 48 hrs by sulforhodamine B assay; settings: RPMI-8226, 48 h
[39] = test system: EKVX; experiment: Growth inhibition of human EKVX cells incubated for 48 hrs by sulforhodamine B assay
[40] = test system: OVCAR-5; experiment: Growth inhibition of human OVCAR5 cells incubated for 48 hrs by sulforhodamine B assay; settings: OVCAR-5, 48 h
[41] = test system: HOP-62; experiment: Growth inhibition of human HOP62 cells incubated for 48 hrs by sulforhodamine B assay; settings: HOP-62, 48 h
[42] = test system: SNB-75; experiment: Growth inhibition of human SNB75 cells incubated for 48 hrs by sulforhodamine B assay; settings: SNB-75, 48 h
[43] = test system: SK-OV-3; experiment: Growth inhibition of human SKOV3 cells incubated for 48 hrs by sulforhodamine B assay; settings: SK-OV-3, 48 h
[44] = test system: MDA-MB-468; experiment: Growth inhibition of human MDA-MB-468 cells incubated for 48 hrs by sulforhodamine B assay; settings: MDA-MB-468, 48 h
[45] = test system: NCI-H226; experiment: Growth inhibition of human NCI-H226 cells incubated for 48 hrs by sulforhodamine B assay; settings: NCI-H226, 48 h
[46] = test system: LOX IMVI; experiment: Growth inhibition of human LOXIMVI cells incubated for 48 hrs by sulforhodamine B assay
[47] = test system: COLO 205; experiment: Growth inhibition of human COLO205 cells incubated for 48 hrs by sulforhodamine B assay; settings: COLO 205, 48 h
[48] = test system: MDA-MB-231; experiment: Growth inhibition of human MDA-MB-231 cells incubated for 48 hrs by sulforhodamine B assay; settings: MDA-MB-231, 48 h
[49] = test system: MCF7; experiment: Growth inhibition of human MCF7 cells incubated for 48 hrs by sulforhodamine B assay; settings: MCF7, 48 h
[50] = test system: CAKI-1; experiment: Growth inhibition of human Caki1 cells incubated for 48 hrs by sulforhodamine B assay; settings: CAKI-1, 48 h
[51] = test system: CCRF-CEM; experiment: Growth inhibition of human CCRF-CEM cells incubated for 48 hrs by sulforhodamine B assay
[52] = test system: SK-MEL-5; experiment: Growth inhibition of human SK-MEL-5 cells incubated for 48 hrs by sulforhodamine B assay; settings: SK-MEL-5, 48 h
[53] = test system: HOP-92; experiment: Growth inhibition of human HOP92 cells incubated for 48 hrs by sulforhodamine B assay; settings: HOP-92, 48 h
[54] = test system: SK-MEL-2; experiment: Growth inhibition of human SK-MEL-2 cells incubated for 48 hrs by sulforhodamine B assay; settings: SK-MEL-2, 48 h
[55] = test system: SK-MEL-28; experiment: Growth inhibition of human SK-MEL-28 cells incubated for 48 hrs by sulforhodamine B assay; settings: SK-MEL-28, 48 h
[56] = test system: UACC-62; experiment: Growth inhibition of human UACC62 cells incubated for 48 hrs by sulforhodamine B assay; settings: UACC-62, 48 h
[57] = test system: DU-145; experiment: Growth inhibition of human DU145 cells incubated for 48 hrs by sulforhodamine B assay; settings: DU-145, 48 h
[58] = test system: MOLT-4; experiment: Growth inhibition of human MOLT4 cells incubated for 48 hrs by sulforhodamine B assay; settings: MOLT-4, 48 h

Measured: GI50

CC(=O)O[C@H]1C(=O)[C@@]2(C)[C@H]([C@H](OC(=O)c3ccccc3)[C@]3(O)C[C@H](OC(=O)[C@H](O)[C@@H](NC(=O)c4ccccc4)c4ccccc4)C(C)=C1C3(C)C)[C@]1(OC(C)=O)CO[C@@H]1C[C@@H]2O [PACLITAXEL]
7.9 nM: [19] | [32] | [40] | [42] | [47]
158 nM: [16] | [50]
25 nM: [14] | [53]
400 nM: [54] | [55]
19 nM: [41]
79 nM: [39]
6.3 nM: [1] | [2] | [7] | [17] | [21] | [23] | [26] | [35] | [36] | [43] | [57]
3.9 nM: [45]
5 nM: [6] | [20] | [22] | [28] | [29] | [34] | [46] | [51] | [52] | [56] | [58]
10 nM: [33]
4 nM: [3] | [13] | [25] | [30] | [31] | [37] | [49]
39 nM: [11]
19.9 nM: [5] | [38]
630 nM: [15] | [27]
12.5 nM: [10] | [44] | [48]
15.8 nM: [18] | [24]
125 nM: [4] | [9]
1 nM: [12]
50 nM: [8]
